Assay results published in publication PMC6009956, “Design, synthesis and biological activity of N^4-phenylsubstituted-7H-pyrrolo[2,3-d]pyrimidin-4-amines as dual inhibitors of aurora kinase A and epidermal growth factor receptor kinase” (Journal of Enzyme Inhibition and Medicinal Chemistry, 2017).
Read-outs that look alike come from different tables or passages of the source. Blank lines part the entries; values can stand above or below the compound they belong to.

Columns and labels:
[1] = target: EGFR (Homo sapiens, UniProt P00533); assay: ADP-Glo kinase assay, EGFR; assay type: biochemical; parameters: purchased BPS Bioscience (assay run externally by the vendor)
Chain of EGFR (P00533 25-1210): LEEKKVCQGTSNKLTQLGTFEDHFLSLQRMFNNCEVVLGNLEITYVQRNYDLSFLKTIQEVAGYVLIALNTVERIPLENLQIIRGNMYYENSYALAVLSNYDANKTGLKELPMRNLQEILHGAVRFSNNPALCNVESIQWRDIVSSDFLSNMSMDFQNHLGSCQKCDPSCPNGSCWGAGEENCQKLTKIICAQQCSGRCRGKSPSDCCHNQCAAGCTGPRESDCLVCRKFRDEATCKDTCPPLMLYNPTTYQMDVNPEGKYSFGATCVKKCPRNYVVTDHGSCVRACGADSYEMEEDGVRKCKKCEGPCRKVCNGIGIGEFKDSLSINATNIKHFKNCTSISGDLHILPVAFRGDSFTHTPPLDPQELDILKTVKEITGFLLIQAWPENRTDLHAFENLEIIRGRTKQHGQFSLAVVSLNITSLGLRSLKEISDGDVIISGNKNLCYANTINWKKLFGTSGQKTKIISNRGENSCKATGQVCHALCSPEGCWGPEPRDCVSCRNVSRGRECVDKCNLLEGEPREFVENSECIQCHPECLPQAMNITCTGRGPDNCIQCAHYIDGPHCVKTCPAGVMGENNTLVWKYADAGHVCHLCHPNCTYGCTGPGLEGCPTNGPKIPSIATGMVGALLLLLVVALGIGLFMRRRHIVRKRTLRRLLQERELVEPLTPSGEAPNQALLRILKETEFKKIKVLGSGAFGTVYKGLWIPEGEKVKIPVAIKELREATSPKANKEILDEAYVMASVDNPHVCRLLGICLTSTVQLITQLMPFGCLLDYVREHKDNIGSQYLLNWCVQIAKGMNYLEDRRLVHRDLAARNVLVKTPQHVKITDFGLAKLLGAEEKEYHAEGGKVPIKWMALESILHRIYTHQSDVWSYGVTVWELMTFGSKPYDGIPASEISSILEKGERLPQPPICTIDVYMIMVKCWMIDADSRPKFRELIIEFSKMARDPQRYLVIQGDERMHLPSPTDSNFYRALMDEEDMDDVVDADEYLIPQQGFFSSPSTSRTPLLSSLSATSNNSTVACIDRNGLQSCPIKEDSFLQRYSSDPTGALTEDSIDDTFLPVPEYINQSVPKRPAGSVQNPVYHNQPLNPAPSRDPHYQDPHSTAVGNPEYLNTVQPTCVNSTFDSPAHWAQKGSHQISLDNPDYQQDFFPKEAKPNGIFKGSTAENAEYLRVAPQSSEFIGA

[2] = target: T1, aurora A kinase (AURKA) (Homo sapiens, UniProt O14965); assay: ADP-Glo kinase assay, Aurora A; assay type: biochemical
T1 construct: purchased BPS Bioscience (assay run externally by the vendor)
T1 sequence (O14965 1-403): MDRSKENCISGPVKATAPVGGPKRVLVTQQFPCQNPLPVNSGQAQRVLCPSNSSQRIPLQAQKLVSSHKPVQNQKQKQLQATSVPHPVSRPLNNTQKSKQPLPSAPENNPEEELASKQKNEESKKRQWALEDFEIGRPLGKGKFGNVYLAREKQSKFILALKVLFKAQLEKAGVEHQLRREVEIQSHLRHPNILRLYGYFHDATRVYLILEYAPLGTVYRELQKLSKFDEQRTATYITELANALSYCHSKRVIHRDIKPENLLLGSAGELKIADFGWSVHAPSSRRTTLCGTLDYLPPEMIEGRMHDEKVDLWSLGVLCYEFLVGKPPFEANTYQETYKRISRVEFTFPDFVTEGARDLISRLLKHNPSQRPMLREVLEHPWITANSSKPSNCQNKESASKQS

[3] = tested on: p-HH3 in FADU and SAS SCCHN cell lines; assay: Western blot of p-HH3 in FADU and SAS cells; assay type: cell-based; conditions: 10 nM
Method: Protein extracts (50 μg per lane) were electrophoretically separated on SDS-PAGE gels, transferred to membranes (Protran, Schleicher & Schuell, Dassel, Germany) and blotted with specific antibodies (actin, aurora A, aurora B: all from Sigma, Munich, Germany; S10-HH3: Millipore, Schwalbach, Germany; EGFR: Santa Cruz, Heidelberg, Germany; pEGFR: Invitrogen, Darmstadt, Germany; pAKT, pERK: both from New England Biolabs, Frankfurt, Germany).
Figure 4. Effects of compound 2 on EGFR and aurora kinases in growing SCCHN cell lines (A) Western blot analysis of EGFR (pEGFR, pERK, p-AKT) and aurora A (p-HH3) downstream target proteins following incubation with 100 μM compound 2 for the indicated time points in BHY and FADU SCCHN cell lines. (B) BHY and CAL cell lines treated for the indicated time points with 200 nM cetuximab. Western blot analysis of EGFR downstream targets. (long exposure and short exposure). […] Western blot analysis of p-HH3 at the indicated time points. Asterisk (*) represents unspecific band.

- IC50 ([1]; 10 µM ATP, triplicate, read-out: EGFR IC50 ± SD): 63.3 ± 4.58 nM
- IC50 ([1]; 10 µM ATP/0.2 mg/ml Poly-Glu-Tyr, read-out: EGFR IC50 (dose-response curve, supplement)): 63.3 nM
- EGFR % Activity Set1 ([1]; Log[nM] 0): 96%
- EGFR % Activity Set2 ([1]; Log[nM] 0): 92%
- EGFR % Activity Set3 ([1]; Log[nM] 0): 95%
- EGFR % Activity Set1 ([1]; Log[nM] 1.0): 88%
- EGFR % Activity Set2 ([1]; Log[nM] 1.0): 83%
- EGFR % Activity Set3 ([1]; Log[nM] 1.0): 88%
- EGFR % Activity Set1 ([1]; Log[nM] 1.5): 66%
- EGFR % Activity Set2 ([1]; Log[nM] 1.5): 62%
- EGFR % Activity Set3 ([1]; Log[nM] 1.5): 65%
- EGFR % Activity Set1 ([1]; Log[nM] 2.0): 42%
- EGFR % Activity Set2 ([1]; Log[nM] 2.0): 38%
- EGFR % Activity Set3 ([1]; Log[nM] 2.0): 43%
- EGFR % Activity Set1 ([1]; Log[nM] 2.5): 16%
- EGFR % Activity Set2 ([1]; Log[nM] 2.5): 16%
- EGFR % Activity Set3 ([1]; Log[nM] 2.5): 16%
- EGFR % Activity Set1 ([1]; Log[nM] 3.0): 8%
- EGFR % Activity Set2 ([1]; Log[nM] 3.0): 8%
- EGFR % Activity Set3 ([1]; Log[nM] 3.0): 9%
- EGFR % Activity Set1 ([1]; Log[nM] 3.5): 3%
- EGFR % Activity Set2 ([1]; Log[nM] 3.5): 3%
- EGFR % Activity Set3 ([1]; Log[nM] 3.5): 3%
- EGFR % Activity Set1 ([1]; Log[nM] 4.0): 2%
- EGFR % Activity Set2 ([1]; Log[nM] 4.0): 2%
- EGFR % Activity Set3 ([1]; Log[nM] 4.0): 2%
- EGFR % Activity Set1 ([1]; Log[nM] 4.5): 2%
- EGFR % Activity Set2 ([1]; Log[nM] 4.5): 2%
- EGFR % Activity Set3 ([1]; Log[nM] 4.5): 2%
- EGFR % Activity Set1 ([1]; Log[nM] 5.0): 2%
- EGFR % Activity Set2 ([1]; Log[nM] 5.0): 3%
- EGFR % Activity Set3 ([1]; Log[nM] 5.0): 2%
- Fold better than compound 17 against AURKA [2]: approximately two-fold
- IC50 ([2]; 10 µM ATP, triplicate, read-out: AURKA IC50 ± SD): 4950 ± 690 nM
- IC50 ([2]; 10 µM ATP/0.2 mg/ml Kemptide, read-out: Aurora A IC50 (dose-response curve, supplement)): 5000 nM
- Aurora A % Activity Set1 ([2]; Log[nM] 0): 110%
- Aurora A % Activity Set2 ([2]; Log[nM] 0): 93%
- Aurora A % Activity Set3 ([2]; Log[nM] 0): 104%
- Aurora A % Activity Set1 ([2]; Log[nM] 1.0): 103%
- Aurora A % Activity Set2 ([2]; Log[nM] 1.0): 93%
- Aurora A % Activity Set3 ([2]; Log[nM] 1.0): 101%
- Aurora A % Activity Set1 ([2]; Log[nM] 1.5): 105%
- Aurora A % Activity Set2 ([2]; Log[nM] 1.5): 96%
- Aurora A % Activity Set3 ([2]; Log[nM] 1.5): 105%
- Aurora A % Activity Set1 ([2]; Log[nM] 2.0): 103%
- Aurora A % Activity Set2 ([2]; Log[nM] 2.0): 93%
- Aurora A % Activity Set3 ([2]; Log[nM] 2.0): 100%
- Aurora A % Activity Set1 ([2]; Log[nM] 2.5): 90%
- Aurora A % Activity Set2 ([2]; Log[nM] 2.5): 86%
- Aurora A % Activity Set3 ([2]; Log[nM] 2.5): 93%
- Aurora A % Activity Set1 ([2]; Log[nM] 3.0): 77%
- Aurora A % Activity Set2 ([2]; Log[nM] 3.0): 73%
- Aurora A % Activity Set3 ([2]; Log[nM] 3.0): 85%
- Aurora A % Activity Set1 ([2]; Log[nM] 3.5): 51%
- Aurora A % Activity Set2 ([2]; Log[nM] 3.5): 45%
- Aurora A % Activity Set3 ([2]; Log[nM] 3.5): 47%
- Aurora A % Activity Set1 ([2]; Log[nM] 4.0): 32%
- Aurora A % Activity Set2 ([2]; Log[nM] 4.0): 30%
- Aurora A % Activity Set3 ([2]; Log[nM] 4.0): 31%
- Aurora A % Activity Set1 ([2]; Log[nM] 4.5): 29%
- Aurora A % Activity Set2 ([2]; Log[nM] 4.5): 26%
- Aurora A % Activity Set3 ([2]; Log[nM] 4.5): 26%
- Aurora A % Activity Set1 ([2]; Log[nM] 5.0): 30%
- Aurora A % Activity Set2 ([2]; Log[nM] 5.0): 26%
- Aurora A % Activity Set3 ([2]; Log[nM] 5.0): 26%
Structure (SMILES): c1ccc(Cc2ccc(Nc3ncnc4[nH]ccc34)cc2)cc1 [Compound 18, N^4-(4-benzylphenyl)-7H-pyrrolo[2,3-d]pyrimidin-4-amine]

Structure (SMILES): COc1cc(Nc2ncc3c(n2)-c2ccc(Cl)cc2C(c2c(F)cccc2OC)=NC3)ccc1C(=O)O [MLN8237]
- Histone H3 phosphorylation (p-HH3) [3]: inhibition of histone H3 phosphorylation
